This passage reports IC50 results from patent US20150218172A1, “Pyrrolo[2,3-D]Pyrimidine Tropomyosin-Related Kinase Inhibitors” (PFIZER LIMITED, priority 2012, published 2015).

The target of this assay is T1, TrkA (Homo sapiens, UniProt P04629).
T1 construct: aa 441-796; His; purchased Invitrogen PV3144
T1 sequence (P04629 441-796): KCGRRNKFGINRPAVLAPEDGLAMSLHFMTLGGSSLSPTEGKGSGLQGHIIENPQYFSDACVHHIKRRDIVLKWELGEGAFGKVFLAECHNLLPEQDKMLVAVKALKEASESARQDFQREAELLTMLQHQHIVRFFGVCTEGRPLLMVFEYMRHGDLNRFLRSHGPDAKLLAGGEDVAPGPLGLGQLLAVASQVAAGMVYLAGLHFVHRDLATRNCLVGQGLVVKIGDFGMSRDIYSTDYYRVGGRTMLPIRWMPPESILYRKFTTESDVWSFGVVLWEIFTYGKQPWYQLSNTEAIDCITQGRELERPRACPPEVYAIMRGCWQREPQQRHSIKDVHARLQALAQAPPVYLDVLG
In words: Isolated TRK enzyme assay (HTRF KinEASE-TK kit), PV3144 TrkA enzyme assay. It is filed as biochemical. Conditions: PV3144 TrkA enzyme assay, recombinant His-tagged cytoplasmic domain aa 441-796, 4 nM enzyme, 40 uM ATP; arithmetic mean where more than one reading; read-out: Trka enzyme (IC50). Here is the method:
Isolated TRK Enzyme assays use the HTRF KinEASE-TK kit (Cisbio Cat#62TK0PEJ) with recombinant His-tagged cytoplasmic domains of each TRK receptor sourced from Invitrogen (see table below). This activity-assay measures the phosphorylation of tyrosine residues within a substrate from the HTRF kit which has been validated by Cisbio for a variety of tyrosine kinases including the TRK receptors.
0.5 mM stock solutions of test compounds are prepared and serially diluted in 100% DMSO. A standard curve using the compound of Example 135 disclosed in WO2005/116035 of 150 uM is also prepared on each test plate. High percentage effect (HPE) is defined by 150 uM (using the compound of Example 135 as disclosed in WO2005/116035) and 0% effect (ZPE) is defined by 100% DMSO. Greiner low volume black plates containing 0.2 ul of serially diluted compound, standard and HPE/ZPE are created using the Bravo nanolitre dispenser.
1X enzyme buffer is prepared from 5X Enzymatic Buffer from the Cisbio KinEASE TK kit using MilliQ water. The buffer is then supplemented with 10 mM MgCl and 2 mM DTT (both from Sigma). In the case of TRKB, the buffer is also supplemented with 125 nM Supplement Enzymatic Buffer (SEB) from the Cisbio kit.
2X FAC of enzyme and 2X FAC ATP diluted in 1X complete enzyme buffer is incubated at room temperature for 20 minutes to preactivate the enzyme. Following this preactivation step, 5 ul/well of enzyme+ATP mix is added using a Multidrop Micro to the assay plate, spotted with 0.2 ul 100% DMSO compound. This is left for 20 mins at room temperature before adding 5 ul of 2 uM TK-substrate-Biotin (from the Cisbio kit) diluted in 1X enzyme buffer (1 uM FAC) using the Multidrop Micro. The reaction is incubated at room temperature for the optimized assay reaction time (see table). The reaction is stopped by adding 10 ul/well HTRF Detection Buffer containing 0.25 uM Streptavidin-XL665 (0.125 uM FAC) and 1:200 TK Antibody-Cryptate using a Multidrop.
After the Detection Reagent addition, plates are covered and incubated at room temperature for 60 minutes. HTRF signal is read using an Envision reader, measured as a ratio of emissions at two different wavelengths, 620 nm and 665 nm. […] Test compound data are expressed as percentage inhibition defined by HPE and ZPE values for each plate. Percentage inhibition in the presence of test compound is plotted against compound concentration on a log scale to determine an IC50 from the resultant sigmoid curve.
Below are TrkA IC50 data generated using the PV3144 TrkA enzyme assay. Where more than one reading was taken, the arithmetic mean is presented.
In general terms: In TR-FRET formats the signal depends on donor and acceptor labels being close together.
Broadly, the IC50 is the point on the concentration scale where inhibition reaches its midpoint. In the case of `Cc1cc(C(F)(F)F)nn1CC(=O)Nc1cc(C(=O)c2cn(C(C)C)c3ncncc23)ccc1C#N` [Example 35, N-(2-cyano-5-{[7-(propan-2-yl)-7H-pyrrolo[2,3-d]pyrimidin-5-yl]carbonyl}phenyl)-2-[5-methyl-3-(trifluoromethyl)-1H-pyrazol-1-yl]acetamide], the IC50 amounted to 10.9 nM.

For `CC(C)(C)n1cc(C(=O)c2cc(NC(=O)Cn3cc(C4CC4)nn3)ccn2)c2cncnc21` [Example 36, N-[2-(7-tert-Butyl-7H-pyrrolo[2,3-d]pyrimidine-5-carbonyl)-pyridin-4-yl]-2-(4-cyclopropyl-[1,2,3]triazol-1-yl)-acetamide], the IC50 turned out to be 51.9 nM. Then `CC(C)(C)n1cc(C(=O)c2cc(NC(=O)Cc3ccc(F)cn3)ccn2)c2cncnc21` [Example 37, N-{2-[(7-tert-butyl-7H-pyrrolo[2,3-d]pyrimidin-5-yl)carbonyl]pyridin-4-yl}-2-(5-fluoropyridin-2-yl)acetamide], with 21 nM; and `CC(C)(C)n1cc(C(=O)c2cc(NC(=O)Cc3cccc(S(C)(=O)=O)c3)ccn2)c2cncnc21` [Example 38, N-{2-[(7-tert-butyl-7H-pyrrolo[2,3-d]pyrimidin-5-yl)carbonyl]pyridin-4-yl}-2-[3-(methylsulfonyl)phenyl]acetamide], with 9.61 nM.

Regarding `CC(C)(C)n1cc(C(=O)c2cc(NC(=O)Cc3ccc(Cl)cn3)ccn2)c2cncnc21` [Example 39, N-{2-[(7-tert-butyl-7H-pyrrolo[2,3-d]pyrimidin-5-yl)carbonyl]pyridin-4-yl}-2-(5-chloropyridin-2-yl)acetamide], the IC50 stood at 5.27 nM. Regarding `CC(C)(C)n1cc(C(=O)c2cc(NC(=O)Cn3ccc(C4CC4)n3)ccn2)c2cncnc21` [Example 40, N-{2-[(7-tert-butyl-7H-pyrrolo[2,3-d]pyrimidin-5-yl)carbonyl]pyridin-4-yl}-2-(3-cyclopropyl-1H-pyrazol-1-yl)acetamide], the IC50 amounted to 8.38 nM. Then `CC(C)(C)n1cc(C(=O)c2cc(NC(=O)Cn3ccc(C(F)(F)F)n3)ccn2)c2cncnc21` [Example 41, N-{2-[(7-tert-butyl-7H-pyrrolo[2,3-d]pyrimidin-5-yl)carbonyl]pyridin-4-yl}-2-[3-(trifluoromethyl)-1H-pyrazol-1-yl]acetamide], with 10.7 nM. Then `CC(C)(C)n1cc(C(=O)c2cc(NC(=O)Cc3ccc(Cl)cc3)ccn2)c2cncnc21` [Example 42, N-{2-[(7-tert-butyl-7H-pyrrolo[2,3-d]pyrimidin-5-yl)carbonyl]pyridin-4-yl}-2-(4-chlorophenyl)acetamide], with 11.5 nM.

For `CC(C)(C)n1cc(C(=O)c2cc(NC(=O)Cc3ccc(F)cc3)ccn2)c2cncnc21` [Example 43, N-{2-[(7-tert-butyl-7H-pyrrolo[2,3-d]pyrimidin-5-yl)carbonyl]pyridin-4-yl}-2-(4-fluorophenyl)acetamide], the IC50 is 15.7 nM. Take `CC(C)n1cc(C(=O)c2ccnc(NC(=O)Cc3ccc(Cl)cc3)c2)c2cnc(N)nc21` [Example 44, N-[4-(2-Amino-7-isopropyl-7H-pyrrolo[2,3-d]pyrimidine-5-carbonyl)-pyridin-2-yl]-2-(4-chloro-phenyl)-acetamide]: the IC50 is 10.2 nM.

With `CC(C)n1cc(C(=O)c2ccnc(NC(=O)Cc3ccc(C#N)cc3)c2)c2cnc(N)nc21` [Example 45, N-(4-{[2-amino-7-(propan-2-yl)-7H-pyrrolo[2,3-d]pyrimidin-5-yl]carbonyl}pyridin-2-yl)-2-(4-cyanophenyl)acetamide], the IC50 worked out at 36.1 nM.

Consider `Cc1cc(C(F)(F)F)nn1CC(=O)Nc1cc(C(=O)c2cn(C(C)C)c3nc(N)ncc23)ccn1` [Example 46, N-(4-{[2-amino-7-(propan-2-yl)-7H-pyrrolo[2,3-d]pyrimidin-5-yl]carbonyl}pyridin-2-yl)-2-[5-methyl-3-(trifluoromethyl)-1H-pyrazol-1-yl]acetamide], for which the half-inhibitory concentration (IC50) is 4.69 nM.

In the case of `CC(C)n1cc(C(=O)c2cc(NC(=O)Cc3ccc(Cl)cc3)ccn2)c2cncnc21` [Example 47, 2-(4-Chloro-phenyl)-N-[2-(7-isopropyl-7H-pyrrolo[2,3-d]pyrimidine-5-carbonyl)-pyridin-4-yl]-acetamide], the half-inhibitory concentration (IC50) was 5.71 nM.

As for `CC(C)(CO)n1cc(C(=O)c2cc(NC(=O)Cc3ccc(Cl)cc3)ccn2)c2cnc(N)nc21` [Example 48, N-{2-[2-Amino-7-(2-hydroxy-1,1-dimethyl-ethyl)-7H-pyrrolo[2,3-d]pyrimidine-5-carbonyl}-pyridin-4-yl]-2-(4-chloro-phenyl)-acetamide], the IC50 was 7.29 nM. Then `CC(C)(CO)n1cc(C(=O)c2cc(NC(=O)Cc3cccc(C(F)(F)F)c3)ccn2)c2cnc(N)nc21` [Example 49, N-(2-{[2-amino-7-(1-hydroxy-2-methylpropan-2-yl)-7H-pyrrolo[2,3-d]pyrimidin-5-yl]carbonyl}pyridin-4-yl)-2-[3-(trifluoromethyl)phenyl]acetamide], with 9.7 nM. In the case of `CC(C)(CO)n1cc(C(=O)c2cc(NC(=O)Cc3ccc(C(F)(F)F)cc3)ccn2)c2cnc(N)nc21` [Example 50, N-(2-{[2-amino-7-(1-hydroxy-2-methylpropan-2-yl)-7H-pyrrolo[2,3-d]pyrimidin-5-yl]carbonyl}pyridin-4-yl)-2-[4-(trifluoromethyl)phenyl]acetamide], the IC50 came out at 9.29 nM. The same measure for `CC(C)(CO)n1cc(C(=O)c2cc(NC(=O)Cc3ccc(C#N)cc3)ccn2)c2cnc(N)nc21` [Example 51, N-(2-{[2-amino-7-(1-hydroxy-2-methylpropan-2-yl)-7H-pyrrolo[2,3-d]pyrimidin-5-yl]carbonyl}pyridin-4-yl)-2-(4-cyanophenyl)acetamide]: 78.7 nM; for `CC(C)(CO)n1cc(C(=O)c2cc(NC(=O)Cc3ccc(Cl)cn3)ccn2)c2cnc(N)nc21` [Example 52, N-(2-{[2-amino-7-(1-hydroxy-2-methylpropan-2-yl)-7H-pyrrolo[2,3-d]pyrimidin-5-yl]carbonyl}pyridin-4-yl)-2-(5-chloropyridin-2-yl)acetamide]: 73.1 nM.

`CC(C)(CO)n1cc(C(=O)c2cc(NC(=O)Cn3cc(C(F)(F)F)nn3)ccn2)c2cnc(N)nc21` [Example 53, N-(2-{[2-amino-7-(1-hydroxy-2-methylpropan-2-yl)-7H-pyrrolo[2,3-d]pyrimidin-5-yl]carbonyl}pyridin-4-yl)-2-[4-(trifluoromethyl)-1H-1,2,3-triazol-1-yl]acetamide]: the IC50 stood at 216 nM. As to `CC(C)(CO)n1cc(C(=O)c2cc(NC(=O)Cn3cc(C(F)(F)F)nn3)ccn2)c2cncnc21` [Example 54, N-(2-{[7-(1-hydroxy-2-methylpropan-2-yl)-7H-pyrrolo[2,3-d]pyrimidin-5-yl]carbonyl}pyridin-4-yl)-2-[4-(trifluoromethyl)-1H-1,2,3-triazol-1-yl]acetamide], the IC50 came out at 46.2 nM. The same measure for `CC(C)(CO)n1cc(C(=O)c2cc(NC(=O)Cc3ccc(C(F)(F)F)cc3)ccn2)c2cncnc21` [Example 55, N-(2-{[7-(1-hydroxy-2-methylpropan-2-yl)-7H-pyrrolo[2,3-d]pyrimidin-5-yl]carbonyl}pyridin-4-yl)-2-[4-(trifluoromethyl)phenyl]acetamide]: 12.9 nM; for `CC(C)(CO)n1cc(C(=O)c2cc(NC(=O)Cc3cccc(C(F)(F)F)c3)ccn2)c2cncnc21` [Example 56, N-(2-{[7-(1-hydroxy-2-methylpropan-2-yl)-7H-pyrrolo[2,3-d]pyrimidin-5-yl]carbonyl}pyridin-4-yl)-2-[3-(trifluoromethyl)phenyl]acetamide]: 6.56 nM; for `CC(C)(CO)n1cc(C(=O)c2cc(NC(=O)Cc3ccc(C#N)cc3)ccn2)c2cncnc21` [Example 57, 2-(4-cyanophenyl)-N-(2-{[7-(1-hydroxy-2-methylpropan-2-yl)-7H-pyrrolo[2,3-d]pyrimidin-5-yl]carbonyl}pyridin-4-yl)acetamide]: 66.1 nM. In the case of `CC(C)(CO)n1cc(C(=O)c2cc(NC(=O)Cc3ccc(Cl)cn3)ccn2)c2cncnc21` [Example 58, 2-(5-chloropyridin-2-yl)-N-(2-{[7-(1-hydroxy-2-methylpropan-2-yl)-7H-pyrrolo[2,3-d]pyrimidin-5-yl]carbonyl}pyridin-4-yl)acetamide], the IC50 is 11.6 nM.
